Patent US5559028A, “Methods of enhancing or antigen presentation to T cells inhibiting” (Antigen Express, Inc., priority 1993, dated 1996)
Where no end group is shown, it is not given here.

Experiments:
[1] = test system: E^k -restricted murine T cell hybridoma, TPc9.1; assay: Enhancement of presentation of pigeon cytochrome C(81-104) by fixed CH27 cells to TPc9.1 T hybridoma (IL-2/IL-4, HT-2 indicator); format: cell-based
Method: The assay was carried out as follows. 5×10^4 paraformaldehyde-fixed CH27 B lymphoma cells (antigen presenting cells) were incubated in 96-well plates with 5×10^4 TPc9.1 T hybridoma cells (irradiated 2200 rads) for 24 hrs in the presence of: no peptides, 50 μM Ii peptide only, 6 μM pigeon cytochrome C(81-104) peptide only, and 50 μM Ii peptide plus 6 μM pigeon cytochrome C(81-104) peptide. Each condition was assayed in sextuplet. After incubation, the response of the T cell hybridoma was determined by measuring the IL-2/IL-4 secreted during the 24 hr culture. The supernatants were collected and were tested for IL-2/IL-4 content by the ability to support the growth of the IL-2/ IL-4-dependent cell line HT-2 as measured by [^3 H]thymidine incorporation. The values presented in Table V are the CPM×10^-3 incorporated in the HT-2 indicator assay.
The enhancement of responses to pigeon cytochrome C peptide (81-104) by Ii (148-164) and Ii (78-92) was assayed as a function of concentration of the added Ii peptide (Table VI). The values in the Table represent the % enhancement of the pigeon cytochrome C(81-104) peptide-specific, E^k -restricted response by the TPc9.1 murine T cell hybridoma (T) to the peptide presented by paraformaldehyde-fixed CH27 B lymphoma cells (APC). Culture supernatants were collected and were tested for IL-2/IL-4 content by the ability to support the growth of the Il-2/IL-4-dependent cell Line HT-2 as measured by the incorporation of [^3 H]thymidine. The % enhancement was calculated as: [(CPM of T+APC+peptide+Ii peptide / CPM of T+APC+peptide)×100]-100.

cathepsin D [2] = assay: Cathepsin D digestion of wild type and mutant Ii in trimers with HLA-DR1 α,β chains (SDS-PAGE of fragments); format: biochemical; conditions: pH 5.0, 30 min, room temperature, Jesthom microsomal membrane proteins
Method: The lowest level of cathepsin D seen to cleave Ii was 0.1 U/ml. Solubilized microsomal membrane proteins from [^35 S]methionine-labeled Jesthom cells were treated with the cathepsin D (concentrations 0, 0.01, 0.05, 0.1, 0.5, 2.5, 10.0 U/ml) at pH 5.0 for 30 min at room temperature. At the end of the incubation, the enzyme was inactivated and immunoprecipitates with anti-class II mAb, IVA12 or with anti-Ii mAb, VIC-Y1 were formed. The immunoprecipitated samples were analyzed by SDS-PAGE and autoradiography. In a second experiment, when the lowest level of cathepsin D (0.1 U/ml) seen to cleave Ii was added to the assay for peptide binding in the presence of varying concentrations of cathepsin B (0.02-0.5 U/ml), the net level of peptide binding was enhanced about 3 times that seen without cathepsin D, as judged by densitometry of the autoradiographs. For this experiment iodinated HSAB-MA(18-29) peptide and unradiolabeled microsomal membranes were incubated with or without 0.1 U/ml cathepsin D for 10 min or 30 min in the presence of varying amounts of cathepsin B (0.02, 0.1, or 0.5 U/ml). After subsequent photoactivation and immunoprecipitation with anti-class II mAb, the samples were subjected to SDS-PAGE and autoradiography.
CD digestions were carried out according to Reyes et al. (1991). […]

cathepsin B = cathepsin B (Homo sapiens, UniProt P07858); conditions: cited from earlier work
cathepsin D [3] = target: cathepsin D (Homo sapiens, UniProt P07339); conditions: cited from earlier work
Ii = conditions: cited from earlier work

Chain of cathepsin D (Homo sapiens, UniProt P07339) (P07339 65-412, species assumed): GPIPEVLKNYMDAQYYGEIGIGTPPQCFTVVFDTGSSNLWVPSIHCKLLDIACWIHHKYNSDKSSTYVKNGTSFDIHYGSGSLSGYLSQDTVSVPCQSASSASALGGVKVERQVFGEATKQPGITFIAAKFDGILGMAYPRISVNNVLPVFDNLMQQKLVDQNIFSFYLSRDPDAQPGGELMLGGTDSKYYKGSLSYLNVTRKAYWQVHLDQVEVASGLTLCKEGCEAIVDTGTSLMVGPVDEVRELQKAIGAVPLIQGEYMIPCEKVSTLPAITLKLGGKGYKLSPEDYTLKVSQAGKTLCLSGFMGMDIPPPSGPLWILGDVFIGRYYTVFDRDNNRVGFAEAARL

Row | Compound | % enhancement of the pigeon cytochrome C(81-104) peptide-specific response ([1]; Ii peptide 1 μM) [%] | % enhancement of the pigeon cytochrome C(81-104) peptide-specific response ([1]; Ii peptide 10 μM) [%] | % enhancement of the pigeon cytochrome C(81-104) peptide-specific response ([1]; Ii peptide 50 μM) [%] | % enhancement of the pigeon cytochrome C(81-104) peptide-specific response ([1]; Ii peptide 100 μM) [%] | lowest level of cathepsin D seen to cleave Ii (cathepsin D [2]) [U/ml] | inhibition of cathepsin B (cathepsin B) | inhibition of cathepsin D (cathepsin D [3]) | antigen charging in vitro (Ii) | final proteolysis of Ii (Ii)
1 | YRMKLPKPPKPVSKMR [Ii (78-92), YRMKLPKPPKPVSKMR] | 40 | 101 | 187 | 170 |  |  |  |  | 
2 | ENLRHLKNTMETLDWKV [Ii (148-164), ENLRHLKNTMETLDWKV] | 0 | 19 | 91 | 140 |  |  |  |  | 
3 | cathepsin D: aspartyl protease |  |  |  |  | 0.1 |  |  |  | 
4 | CC(=O)N[C@@H](CC(C)C)C(=O)N[C@@H](CC(C)C)C(=O)N[C@H](C=O)CCCNC(=N)N [leupeptin] |  |  |  |  |  | inhibited | not | blocks antigen charging in vitro | limits the final proteolysis of Ii to p21 and p14 fragments
